Source: PMC8791944, “GLUT3 inhibitor discovery through in silico ligand screening and in vivo validation in eukaryotic expression systems” (Scientific Reports, 2022)

system: MCF7 (breast cancer) cells; assay: MTT cancer cell viability assay, MCF7; assay type: cell-based; conditions: Homo sapiens, MCF7, 48 h
Description: A possible therapeutic application of GLUT3 inhibitors is in oncology, especially for cancers in which GLUT3 is a poor prognosis marker. We tested the effect of GLUT3 inhibitors on the cell viability of several different cancer lines: myeloid leukemia (HL60 and U937), lung cancer (A549), colorectal adenocarcinoma (Caco-2), breast cancer (MCF7), hepatocellular carcinoma (HepG2), and choriocarcinoma (BeWo) cells. GLUT3 inhibitors, at five different concentrations, ranging from 2 to 100 µM, were incubated with cancer cells for 48 h. Then, cell viability was assessed with the MTT assay. […] G3iC and G3iD also affected the leukemia cell lines but at double the concentrations of G3iB and G3iE. […] G3iB had some cytotoxic activity (CC50 < 50 µM) against the highest number of cancer cell lines (HL60, U937, A549, HepG2, and MCF7).
Cancer cell viability in the presence of GLUT3 inhibitors was assayed using the MTT Cell Viability Kit (Biotium Inc, Freemont, CA) according to manufacturer’s instructions. Cancer cells were grown in the corresponding medium, at 37 °C and 5% CO2 in a humidified incubator. The media (Gibco) for leukemia cells (HL60 and U937), A549, MCF7, BeWo, and HepG2 cells were RPMI 1640, Ham’s F-12K, DMEM:F-12, Ham’s F-12K, and EMEM, respectively, all supplemented with 10% (v/v) fetal bovine serum (HyClone). Caco-2 cells were grown in EMEM supplemented with 20% (v/v) fetal bovine serum. Cells were detached from the culture flasks with Accutase (Innovative Cell Technologies, Inc., San Diego, CA) according to manufacturer’s instructions. Cells were seeded in 96-well plates, at a density of ~ 30,000 cells/well (in 100 µl fresh media) and incubated with varying concentrations of GLUT3 inhibitors for 48 h, at 37 °C and 5% CO2 in a humidified incubator. The inhibitors were dissolved in DMSO, at 100× the final concentration, so that 1 µl of the stock inhibitor concentration was added per well, making the final DMSO concentration 1% (v/v). Therefore, controls for 100% cell viability were cells with 1% (v/v) DMSO without the inhibitors. Controls for 0% cell viability were cells treated with 0.3% (v/v) Tween 20. For MTT assay, 10 µl of MTT reagent was added in each well followed by 3–4 h incubation at 37 °C and 5% CO2 in a humidified incubator. After thoroughly mixing in 200 µl DMSO in each well, the plates were put into a plate reader (BioTek Synergy H1), and the absorbances at 570 nm and 630 nm were measured with Gen5 program (BioTek Inc.). The experimental values represent Abs570 nm-Abs630 nm with each inhibitor condition and control being the average of three wells.
Supplementary Figure S8. Effect of GLUT3 inhibitors on the viability of various cancer cell lines. Cell viability was determined by MTT assay in A549 (lung cancer), BeWo (choriocarcinoma), Caco-2 (colon cancer), HepG2 (liver cancer), HL-60 (leukemia), MCF7 (breast cancer), and U937 (histiocytic lymphoma) cell lines. GLUT3 inhibitors at concentrations of 2, 5, 10, 20, 50, and 100 µM were incubated with cells in 96-well plates for 48 hours before the addition of the MTT reagent.

| SMILES | CC50 [µM] |
| --- | --- |
| COc1ccccc1-n1c(/C=C/c2ccc(O)cc2)nc2ccc(Br)cc2c1=O [G3iB, 6-bromo-2-[(E)-2-(4-hydroxyphenyl)ethenyl]-3-(2-methoxyphenyl)quinazolin-4(3H)-one] | < 50 |
| Cc1cc(NC(=O)CCC2Cc3ccccc3NC2=O)nc(-c2ccccc2)n1 (stereo not shown) [G3iD] | > 50 |
| O=C(Nc1cccc(Cl)c1)c1cccc(NC(=O)c2cccc([N+](=O)[O-])c2)c1 [G3iE, N-{3-[(3-chloroanilino)carbonyl]phenyl}-3-nitrobenzamide] | > 100 |
| Cc1cccnc1OC1CCN(c2cc(N3CCCC3CO)ncn2)CC1 (stereo not shown) [G3iC] | > 50 |
| Cc1ccccc1CN(Cc1nnc(C(C)(C)C)o1)c1ccc2nc(O)[nH]c2c1 [G3iF] | > 100 |
| CC(=O)Nc1ccc(S(=O)(=O)Nc2ccc(Nc3cc(N(C)C)nc(C)n3)cc2)cc1 [G3iA, N-(4-{[(4-{[6-(dimethylamino)-2-methylpyrimidin-4-yl]amino}phenyl)amino]sulfonyl}phenyl)acetamide] | > 100 |

same assay, conditions: MCF7, 48 h

| SMILES | CC50 [µM] |
| --- | --- |
| COc1ccccc1-n1c(/C=C/c2ccc(O)cc2)nc2ccc(Br)cc2c1=O [G3iB, 6-bromo-2-[(E)-2-(4-hydroxyphenyl)ethenyl]-3-(2-methoxyphenyl)quinazolin-4(3H)-one] | 42.6 ± 4.2 |
